These results are taken from US20100216827A1 (Metabolex, Inc., priority 2008, published 2010).

Read-outs that look alike come from different tables or passages of the source.

In the assay the target is T1, human GPR120 (Homo sapiens, UniProt Q5NUL3).
T1 construct: host or cells: HEK293 cells coexpressing Gqi5
T1 sequence (Q5NUL3 1-361): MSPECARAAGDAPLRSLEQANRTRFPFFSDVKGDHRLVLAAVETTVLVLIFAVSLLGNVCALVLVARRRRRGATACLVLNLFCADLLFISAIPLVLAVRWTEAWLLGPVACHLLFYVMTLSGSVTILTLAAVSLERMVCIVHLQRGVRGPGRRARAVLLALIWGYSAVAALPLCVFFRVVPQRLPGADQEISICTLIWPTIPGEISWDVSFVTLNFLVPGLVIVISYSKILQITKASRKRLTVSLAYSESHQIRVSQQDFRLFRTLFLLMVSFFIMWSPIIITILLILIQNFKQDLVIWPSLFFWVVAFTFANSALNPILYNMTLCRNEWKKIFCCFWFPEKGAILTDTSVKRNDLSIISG
Put plainly: Intracellular Ca2+ (FLIPR Calcium 4, Flexstation) assay in human GPR120 stable HEK293 cell line coexpressing Gqi5. The class given is cell-based. The conditions noted are these: for % Activity at 5 μM: 5 μM compound compared to the maximal activity of GW9508 at 6.7 μM (100%); for EC50: human GPR120 stably expressing cells, 8 concentrations 0.00001 to 20 μM. The protocol: Human GPR120 stable cell line was purchased from Multispan Inc (26219 Eden Landing Road, Hayward, Calif. 94545). This GPR120 cell line was generated in HEK293 cells coexpressing Gqi5. In this cell line, the Flag epitope tag (DYKDDDDK) was fused to the amino terminus of human GPR120 protein.
The concentration of intracellular Ca^2+ was measured as described below. Human GPR120 cells were plated in 96 well plates (Poly-D-Lysine coated black/clear Plate, Greiner Bio-One) at 70,000 cells per well and cultured overnight in conditions of 37° C. and 5% CO2. A Ca^2+ assay dye stock solution was prepared by adding 10 mL of assay buffer (HBSS/20 mM HEPES, pH 7.4) to FLIPR Calcium 4 Assay Bulk Kit (Molecular Devices). The 10 mL of Ca^2+ assay dye solution was prepared by further diluting 0.5 mL of Ca^2+ assay dye stock solution with 10 mL of assay buffer. The medium of the cells was removed and immediately 100 μl of the Ca^2+ assay dye solution was dispensed into each well followed by incubation at 37° C. and 5% CO2 for 50 minutes to incorporate the Ca^2+ dye into the cells. The cell plate was then placed in the Flexstation (Molecular Devices) for 20 minutes at 37° C. Compounds were dissolved in 100% DMSO and diluted to desired concentrations with assay buffer and placed in Flexstation simultaneously with the cell plate for 20 minute incubation at 37° C. prior to reading. Fluorescence intensity was measured immediately following compound addition (25 μl/well) on the Flexstation at an excitation wavelength of 485 nm and an emission wavelength of 525 with 515 nm auto cutoff. The resulting increase in fluorescence intensities corresponds to increases in intracellular Ca^2+ levels.
Compounds were dissolved in 100% DMSO to a concentration of 20 mM to provide stock solutions. To determine activity against human GPR120, compounds were added with human GPR120 stably expressing cells (described above), at 8 desired concentrations ranging from 0.00001 to 20 μM, in 96 well plates and fluorescence intensities were measured for 90 seconds with 2-second intervals. An EC50 value (concentration of the GPR120 agonist where 50% of the agonist's maximal activity is observed) was calculated using the changes (Max-Min) of fluorescent intensity.
To determine percent activity for a tested compound, the fluorescence intensity value obtained at a particular concentration were compared to the maximal fluorescence intensity value obtained for reference compound GW9508 (4-[[(3-phenoxyphenyl)methyl]amino]benzene propanoic acid; British Journal of Pharmacology 2006 148, 619-628) that acts as a full agonist of the GPR120 receptor. The maximal activity of GW9508 is designated as 100% activity. Typically, the GW9508 activity reached a maximum at a concentration of approximately 6.7 μM. Activities of compounds that were tested according to this method are shown in Table 1 below and are expressed as % activity at 5 μM compound compared to the maximal activity of GW9508 at 6.7 μM.

The mark [1] stands for this setting: read-out: EC50 between >1 μM and ≦10 μM.

As a reminder, the EC50 is the concentration that produces a half-maximal response. Turning to `Cc1nc(-c2ccccc2)c(COc2c(F)cc(C3CC3C(=O)O)cc2F)s1` (stereo not shown) [Example 33, 2-(3,5-difluoro-4-((2-methyl-4-phenylthiazol-5-yl)methoxy)phenyl)cyclopropane carboxylic acid], the “% Activity at 5 μM” value is 80%. Moreover, where the note is “read-out: EC50 ≦ 1 μM”, the EC50 was at most 1000 nM.

As to `Cc1onc(-c2ccccc2)c1COc1c(F)cc(COCC(=O)O)cc1F` [Example 34, 2-(3,5-difluoro-4-((5-methyl-3-phenylisoxazol-4-yl)methoxy)benzyloxy)acetic acid], the “% Activity at 5 μM” value is 74%. Moreover, under setting [1], the EC50 is 1000 to 10000 nM.

Consider `Cc1cc(COc2c(F)cc(COCC(=O)O)cc2F)n(-c2ccc(Cl)cc2)n1` [Example 35, 2-(4-((1-(4-chlorophenyl)-3-methyl-1H-pyrazol-5-yl)methoxy)-3,5-difluorobenzyloxy)acetic acid], for which the “% Activity at 5 μM” value came to 86%. Where the note is “read-out: EC50 ≦ 1 μM”, the half-maximal effective concentration (EC50) was at most 1000 nM.

`Cc1onc(-c2ccccc2)c1COc1c(F)cc(CC(C)C(=O)O)cc1F` (stereo not shown) [Example 37, 3-(3,5-difluoro-4-((5-methyl-3-phenylisoxazol-4-yl)methoxy)phenyl)-2-methylpropanoic acid]: the “% Activity at 5 μM” value turned out to be 94%. For the same molecule, under “read-out: EC50 ≦ 1 μM”, the EC50 was at most 1000 nM.

In the case of `Cc1cc(COc2c(F)cc(CC(C)(C)C(=O)O)cc2F)n(-c2ccc(Cl)cc2)n1` [Example 38, 3-(4-((1-(4-chlorophenyl)-3-methyl-1H-pyrazol-5-yl)methoxy)-3,5-difluorophenyl)-2,2-dimethylpropanoic acid], the “% Activity at 5 μM” value is given as 100%. Moreover, the EC50 under setting [1] lay in the range of 1000 to 10000 nM.

With `Cc1cc(COc2ccc3c(c2)CCC(CC(=O)O)C3)n(-c2ccc(Cl)cc2)n1` (stereo not shown) [Example 39, 2-(6-((1-(4-chlorophenyl)-3-methyl-1H-pyrazol-5-yl)methoxy)-1,2,3,4-tetrahydronaphthalen-2-yl)acetic acid], the “% Activity at 5 μM” value is on record as 100%. Also, the EC50 (read-out: EC50 ≦ 1 μM) is at most 1000 nM.

`Cc1onc(-c2ccccc2)c1COc1ccc2c(c1)CCC(CC(=O)O)C2` (stereo not shown) [Example 40, 2-(6-((5-methyl-3-phenylisoxazol-4-yl)methoxy)-1,2,3,4-tetrahydronaphthalen-2-yl)acetic acid]: the “% Activity at 5 μM” value stood at 100%. Under “read-out: EC50 ≦ 1 μM”, the EC50 was at most 1000 nM.

On to `Cc1cc(COc2c(F)cc(CCC(=O)O)cc2F)n(C(C)(C)C)n1` [Example 41, 3-(4-((1-tert-butyl-3-methyl-1H-pyrazol-5-yl)methoxy)-3,5-difluorophenyl)propanoic acid], for which the “% Activity at 5 μM” value is given as 50%. The EC50 (read-out: EC50 ≦ 1 μM) is at most 1000 nM.

For the molecule `Cc1cc(COc2ccc(CCCC(=O)O)cc2)n(-c2ccccc2)n1` [Example 45, 4-(4-((3-methyl-1-phenyl-1H-pyrazol-5-yl)methoxy)phenyl)butanoic acid], the “% Activity at 5 μM” value amounted to 61%. In addition, the EC50 (read-out: EC50 ≦ 1 μM) is at most 1000 nM.

Take `Cc1cc(COc2c(F)cc(CCC(=O)O)cc2F)n(-c2ccccc2)n1` [Example 46, 3-(3,5-difluoro-4-((3-methyl-1-phenyl-1H-pyrazol-5-yl)methoxy)phenyl)propanoic acid]: the “% Activity at 5 μM” value is 62%. Besides, where the note is “read-out: EC50 ≦ 1 μM”, the EC50 is at most 1000 nM.

In the case of `Cc1cc(COc2c(F)cc(CCC(=O)O)cc2F)n(-c2ccc(F)cc2)n1` [Example 47, 3-(3,5-difluoro-4-((1-(4-fluorophenyl)-3-methyl-1H-pyrazol-5-yl)methoxy)phenyl)propanoic acid], the “% Activity at 5 μM” value turned out to be 71%. Besides, the EC50 (read-out: EC50 ≦ 1 μM) was at most 1000 nM.

Take `O=C(O)CCc1cc(F)c(OCc2ccnn2-c2ccccc2)c(F)c1` [Example 48, 3-(3,5-difluoro-4-((1-phenyl-1H-pyrazol-5-yl)methoxy)phenyl)propanoic acid]: the “% Activity at 5 μM” value was 73%. Also, the EC50 (read-out: EC50 ≦ 1 μM) was at most 1000 nM.

In the case of `COc1ccc(-n2nc(C)cc2COc2c(F)cc(CCC(=O)O)cc2F)cc1` [Example 49, 3-(3,5-difluoro-4-((1-(4-methoxyphenyl)-3-methyl-1H-pyrazol-5-yl)methoxy)phenyl)propanoic acid], the “% Activity at 5 μM” value was 71%. Also, the EC50 (read-out: EC50 ≦ 1 μM) is at most 1000 nM.

For the molecule `Cc1cc(COc2c(F)cc(CCC(=O)O)cc2F)n(-c2ccc(Cl)cc2)n1` [Example 50, 3-(4-((1-(4-chlorophenyl)-3-methyl-1H-pyrazol-5-yl)methoxy)-3,5-difluorophenyl)propanoic acid], the “% Activity at 5 μM” value is 85%. The EC50 (read-out: EC50 ≦ 1 μM) is at most 1000 nM.

Consider `Cc1cnn(-c2ccc(F)cc2)c1COc1c(F)cc(CCC(=O)O)cc1F` [Example 51, 3-(3,5-difluoro-4-((1-(4-fluorophenyl)-4-methyl-1H-pyrazol-5-yl)methoxy)phenyl)propanoic acid], for which the “% Activity at 5 μM” value was 81%. For the same molecule, for the setting “read-out: EC50 ≦ 1 μM”, the EC50 was at most 1000 nM.

For `O=C(O)C(F)(F)Cc1cc(F)c(OCc2snnc2-c2ccc(Cl)cc2)c(F)c1` [Example 52, 3-(4-((4-(4-chlorophenyl)-1,2,3-thiadiazol-5-yl)methoxy)-3,5-difluorophenyl)-2,2-difluoropropanoic acid], the “% Activity at 5 μM” value amounted to 96%. The EC50 (read-out: EC50 ≦ 1 μM) is at most 1000 nM.

As for `Cc1cc(COc2c(F)cc(CCC(=O)O)cc2F)n(-c2ccc(F)c(F)c2)n1` [Example 53, 3-(4-((1-(3,4-difluorophenyl)-3-methyl-1H-pyrazol-5-yl)methoxy)-3,5-difluorophenyl)propanoic acid], the “% Activity at 5 μM” value is recorded as 84%. Moreover, the EC50 (read-out: EC50 ≦ 1 μM) is at most 1000 nM.

For the molecule `Cc1cc(COc2c(F)cc(CC(F)C(=O)O)cc2F)n(-c2ccc(Cl)cc2)n1` (stereo not shown) [Example 54, 3-(4-((1-(4-chlorophenyl)-3-methyl-1H-pyrazol-5-yl)methoxy)-3,5-difluorophenyl)-2-fluoropropanoic acid], the “% Activity at 5 μM” value was determined as 48%. Also, the EC50 (read-out: EC50 ≦ 1 μM) was at most 1000 nM.

For the molecule `Cc1cc(COc2c(F)cc(CC3CC3C(=O)O)cc2F)n(-c2ccc(Cl)cc2)n1` (stereo not shown) [Example 55, 2-(4-((1-(4-chlorophenyl)-3-methyl-1H-pyrazol-5-yl)methoxy)-3,5-difluorobenzyl)cyclopropanecarboxylic acid], the “% Activity at 5 μM” value is on record as 66%. Where the note is “read-out: EC50 ≦ 1 μM”, the EC50 was at most 1000 nM.

As for `O=C(O)CCc1cc(F)c(OCc2cc(C(F)(F)F)nn2-c2ccc(Cl)cc2)c(F)c1` [Example 56, 3-(4-((1-(4-chlorophenyl)-3-(trifluoromethyl)-1H-pyrazol-5-yl)methoxy)-3,5-difluorophenyl)propanoic acid], the “% Activity at 5 μM” value came out at 71%. The EC50 (read-out: EC50 ≦ 1 μM) is at most 1000 nM.

For the molecule `O=C(O)C(F)(F)Cc1cc(F)c(OCc2cc(C(F)(F)F)nn2-c2ccc(Cl)cc2)c(F)c1` [Example 57, 3-(4-((1-(4-chlorophenyl)-3-(trifluoromethyl)-1H-pyrazol-5-yl)methoxy)-3,5-difluorophenyl)-2,2-difluoropropanoic acid], the “% Activity at 5 μM” value is 85%. The EC50 (read-out: EC50 ≦ 1 μM) is at most 1000 nM.

Consider `Cc1onc(-c2ccccc2)c1COc1ccc2c(c1)CCC2CC(=O)O` (stereo not shown) [Example 58, 2-(5-((5-methyl-3-phenylisoxazol-4-yl)methoxy)-2,3-dihydro-1H-inden-1-yl)acetic acid], for which the “% Activity at 5 μM” value worked out at 66%. For the same molecule, the EC50 (read-out: EC50 ≦ 1 μM) is at most 1000 nM.

For `Cc1cc(COc2ccc3c(c2)CCC3CC(=O)O)n(-c2ccc(Cl)cc2)n1` (stereo not shown) [Example 59, 2-(5-((1-(4-chlorophenyl)-3-methyl-1H-pyrazol-5-yl)methoxy)-2,3-dihydro-1H-inden-1-yl)acetic acid], the “% Activity at 5 μM” value was 100%. The EC50 (read-out: EC50 ≦ 1 μM) was at most 1000 nM.
